Values after ≈ are worked out from the molar mass of the structure shown. Structures can show the parent of a compound that is named as a salt. Where two headings read alike, the source gives them in different places.
Tests used:
[1] = system: E. coli DH5αZ1 expressing TetX7; assay: Minimum inhibitory concentration, TetX7-expressing strain; format: cell-based; conditions: Escherichia coli, 20 h
Description: (§1) The panels were stored at −80 °C before use. Single colonies of E. coli DH5αZ1 containing TetX7, Tet50, or empty vector in pZE24 expression system were grown in MH-II broth with KAN50 and growth for overnight at 37 °C. On the day of the experiment, MIC panels were thawed at room temperature. […] The panels were incubated at 37 °C for 20 h, then scored by visual inspection. […] Each test was performed in triplicate, with no-antibiotic and no-cell control wells.
(§2) Minimum inhibitory concentrations (MICs) were determined using the broth microdilution method according to CLSI guidelines. Visual inspection of bacterial growth and measurement of the OD600 were used to determine the lowest concentration at which bacterial growth was inhibited.

[2] = system: E. coli DH5αZ1 expressing Tet50; assay: Minimum inhibitory concentration, Tet50-expressing strain; format: cell-based; conditions: 20 h; for MIC: Escherichia coli; for MIC, Tet50, +TC: presence of 8 μg/mL TC, 37 °C
Description: as §1, §2

[3] = biological target: T1, Tet50 (Unknown prokaryotic organism, UniProt A0A059WYP6); assay: In vitro inhibition of TC oxidation by Tet50 (A400), variable preincubation, dark or blue light; format: biochemical; conditions: role: inhibitor, 100 μM TC, 500 μM NADPH
T1 construct: made in house; host or cells: E. coli BL21-Star (DE3)
T1 sequence (A0A059WYP6 whole entry): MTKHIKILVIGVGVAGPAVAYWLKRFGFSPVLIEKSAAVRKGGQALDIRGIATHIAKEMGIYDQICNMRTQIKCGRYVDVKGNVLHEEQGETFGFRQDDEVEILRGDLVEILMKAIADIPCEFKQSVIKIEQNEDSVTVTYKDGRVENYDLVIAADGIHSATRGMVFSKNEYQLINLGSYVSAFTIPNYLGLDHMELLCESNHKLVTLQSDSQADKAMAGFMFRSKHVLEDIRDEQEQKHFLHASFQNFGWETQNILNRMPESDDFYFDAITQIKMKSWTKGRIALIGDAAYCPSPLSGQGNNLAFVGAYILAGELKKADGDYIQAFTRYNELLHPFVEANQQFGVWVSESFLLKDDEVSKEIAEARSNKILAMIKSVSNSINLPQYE
Description: PHBH activity was determined similarly using para-hydroxybenzoic acids as substrate and monitoring for NADPH consumption via A340. […] Reaction samples were prepared in a Costar 96-well flat bottom clear, polystyrene plate and incubated under dark or a 700 lm blue LED bulb held at a distance of 20 cm for various durations. Incubation times were 0, 30, 60, 120, and 240 min under dark or 0, 1, 2, 4, and 8 min under blue light. […] Initial enzyme velocities were determined by linear regression over the linear range of the reaction (typically between 0 and 1 min). […] The velocities were plotted against the logarithm of inhibitor concentration, and apparent IC50 plots were analyzed using GraphPad prism 10 software. […] All apparent IC50 values were plotted against the duration of incubation time and fitted to an exponential decay function. All data points were shown as means and error bars represented standard deviation at least two independent experiments.
TetX7 and TetX6 as model Type 1 enzymes and Tet50 as a model Type 2 enzyme were used.
A hallmark of covalent enzyme inhibition was time dependence given that longer exposure of the enzyme to the inhibitor allowed for more inactivating turnovers. […] The apparent IC50 values were determined for each preincubation time point by monitoring the TDase velocity at A400 under various inhibitor concentrations. The apparent IC50 values were plotted against the preincubation times to determine if the TDase inhibition was time-dependent (FIG. 6).

[4] = dark, 30 min preincubation of inhibitor with enzyme prior to initiating assay, read-out: Apparent IC50 values, Tet50
[5] = read-out: Apparent IC50 value over 7 min blue light, blue light, 7 min

| Compound | MIC ([2]; read-out: MIC, Tet50, −TC) [µg/mL] | MIC, Tet50, +TC [2] [µg/mL] | IC50 [3, 4] [µM] | IC50 [3, 5] [µM] | further results |
| --- | --- | --- | --- | --- | --- |
| Cc1c2c(c(O)c3c(O)c(CNC4(C)CC4)ccc13)C(=O)C1(O)C(=O)C(C(N)=O)=C(O)C(N(C)C)C1C2 [Compound 103, (4S,4aS,12aS)-4-(Dimethylamino)-3,10,11,12a-tetrahy-droxy-6-methyl-9-(((1-methylcyclopropyl)amino)methyl)-1,12-dioxo-1,4,4a,5,12,12a-hexahydrotetracene-2-carboxamide Hydrochloride] | 64 | 16 | – | – | MIC ([1]; read-out: MIC, TetX7, −TC): 64 µg/mL |
| C#CCNCc1ccc2c(C)c3c(c(O)c2c1O)C(=O)[C@]1(O)C(=O)C(C(N)=O)=C(O)[C@@H](N(C)C)[C@@H]1C3.Cl [Compound 104, (4S,4aS,12aS)-4-(Dimethylamino)-3,10,11,12a-tetrahydroxy-6-methyl-1,12-dioxo-9-((prop-2-yn-1-ylamino)-methyl)-1,4,4a,5,12,12a-hexahydrotetracene-2-carboxamide Hydrochloride] | – | 8 | 600 ± 40 | – | – |
| C#CCN(C)Cc1ccc2c(C)c3c(c(O)c2c1O)C(=O)[C@]1(O)C(=O)C(C(N)=O)=C(O)[C@@H](N(C)C)[C@@H]1C3 [Compound 105] | 32 (≈ 63 µM) | 16 | 470 ± 60 | 107 ± 6 | – |
| Cc1c2c(c(O)c3c(O)cccc13)C(=O)[C@]1(O)C(=O)C(C(N)=O)=C(O)[C@@H](N(C)C)[C@@H]1C2 [Compound 106, Anhydrotetracycline, reference compound] | – | – | – | 70 ± 10 | IC50 ([3]; blue light, start of course, read-out: Apparent IC50 value at start of blue light course): 500 ± 60 µM; IC50 ([3]; dark, 240 min preincubation, read-out: Apparent IC50 value over 240 min preincubation): 340 ± 40 µM |
| CN(C)[C@@H]1C(O)=C(C(N)=O)C(=O)[C@@]2(O)C(O)=C3C(=O)c4c(O)cccc4[C@@](C)(O)[C@H]3C[C@@H]12 [TC, tetracycline, reference compound] | – | – | – | – | MIC ([1]; read-out: MIC of TC against TetX7::pZE24): 16 µg/mL; MIC ([2]; read-out: MIC of TC against Tet50::pZE24): 16 µg/mL |

Source: patent publication US20260345640A1 (priority 2025, published 2026)
